Laboratory results from US12123048B2, “Fluorinated 4′-alkylumbelliferyl a-D-glucopyranosides, biological sterilization indicators including the same and methods of using the same” (3M INNOVATIVE PROPERTIES COMPANY, priority 2018, dated 2024).

Test: Measurement of enzyme substrate degradation (100° C. for 15 minutes) by fluorescence
Type: physicochemical
Details: no spores, read at 60° C.
Experimental: Luria-Bertani (LB) broth was prepared by dissolving tryptone (10 g/L), yeast extract (5 g/L), and NaCl (5 g/L) in deionized water. In the examples, 6′-fluoro-4′-methylumbelliferyl α-D-glucopyranoside (0.3 mg/mL) or 5′-fluoro-4′-methylumbelliferyl α-D-glucopyranoside (0.3 mg/mL) was added to the broth. In the comparative examples, 4′-methylumbelliferyl α-D-glucopyranoside (MUG) (0.3 mg/mL) or 6′,8′-Difluoro-4′-methylumbelliferyl α-D-glucopyranoside (0.3 mg/mL) was added to the broth. The pH of the broth was adjusted to either pH 6, pH 7, pH 8, or pH 9 using 0.1 N hydrochloric acid or 1N sodium hydroxide solutions. The broth was passed through a 0.22 micron filter prior to use.
(§1) An 800-microliter sample of LB broth (pH 6) containing 6′-fluoro-4′-methylumbelliferyl α-D-glucopyranoside (0.3 mg/mL) (enzyme substrate of Example 1) was added to a 1.5 mL microcentrifuge tube and the capped tube was placed in a heating block at 100° C. for 15 minutes. A metal block was placed on top of the tube to keep the cap sealed during heating. The sample was cooled to ambient temperature and then added to two wells (100 microliters per well) of a black 96-well microtiter plate with optically clear, flat bottom wells (NUNC #165301, Thermo Fisher Scientific). The top of the plate was covered with an optically clear sealing film (product #4311971, Applied Biosystems Corporation). The plate was warmed at 60° C. and shaken in a linear direction. Fluorescence readings (360 nm excitation/450 nm emission at 50% gain) were taken from the bottom of the plate. A reading was taken at an initial time point of 10 seconds and then at +1 minute intervals thereafter. A Synergy Neo2 fluorescence plate reader (BioTek Company) was used. In Table 5, the mean fluorescence values detected (RFU) at times of 10 seconds, +5 minutes, +10 minutes, and +30 minutes are reported.
as §1, with “7)” for “6)”, “6,” for “5,”
as §1, with “8)” for “6)”, “A Synergy Neo2 fluorescence plate reader (BioTek Company) was used. In Table 5, the mean fluorescence values detected (RFU) at times of 10 seconds, +5 minutes, +10 minutes, and +30 minutes are reported.” left out

Row | SMILES | MEASURED FLUORESCENCE, RFU 10 sec (pH 6 LB broth) | MEASURED FLUORESCENCE, RFU +5 min (pH 6 LB broth) | MEASURED FLUORESCENCE, RFU +10 min (pH 6 LB broth) | MEASURED FLUORESCENCE, RFU +30 min (pH 6 LB broth) | MEASURED FLUORESCENCE, RFU 10 sec (pH 7 LB broth) | MEASURED FLUORESCENCE, RFU +5 min (pH 7 LB broth) | MEASURED FLUORESCENCE, RFU +10 min (pH 7 LB broth) | MEASURED FLUORESCENCE, RFU +30 min (pH 7 LB broth) | MEASURED FLUORESCENCE, RFU 10 sec (pH 8 LB broth) | MEASURED FLUORESCENCE, RFU +5 min (pH 8 LB broth) | MEASURED FLUORESCENCE, RFU +10 min (pH 8 LB broth) | MEASURED FLUORESCENCE, RFU +30 min (pH 8 LB broth) | MEASURED FLUORESCENCE, RFU 10 sec (pH 9 LB broth) | MEASURED FLUORESCENCE, RFU +5 min (pH 9 LB broth) | MEASURED FLUORESCENCE, RFU +10 min (pH 9 LB broth) | MEASURED FLUORESCENCE, RFU +30 min (pH 9 LB broth)
1 | Cc1cc(=O)oc2cc(O[C@H]3O[C@H](CO)[C@@H](O)[C@H](O)[C@H]3O)c(F)cc12 [Example 1, 6′-Fluoro-4′-methylumbelliferyl α-D-glucopyranoside] | 1108 RFU | 1096 RFU | 1040 RFU | 948 RFU | 1209 RFU | 1183 RFU | 1130 RFU | 1037 RFU | 1145 RFU | 1130 RFU | 1092 RFU | 1026 RFU | 1449 RFU | 1437 RFU | 1388 RFU | 1330 RFU
2 | Cc1cc(=O)oc2cc(O[C@H]3O[C@H](CO)[C@@H](O)[C@H](O)[C@H]3O)ccc12 [MUG, 4′-methylumbelliferyl-α-D-glucopyranoside] | 967 RFU | 909 RFU | 852 RFU | 782 RFU | 823 RFU | 790 RFU | 745 RFU | 670 RFU | 714 RFU | 685 RFU | 643 RFU | 567 RFU | 654 RFU | 622 RFU | 575 RFU | 500 RFU
3 | Cc1cc(=O)oc2c(F)c(O[C@H]3O[C@H](CO)[C@@H](O)[C@H](O)[C@H]3O)c(F)cc12 [Comparative Example A, 6′,8′-Difluoro-4′-methylumbelliferyl α-D-glucopyranoside] | 10,605 RFU | 10,851 RFU | 10,748 RFU | 10,663 RFU | 12986 RFU | 13409 RFU | 13403 RFU | 13283 RFU | 14015 RFU | 14483 RFU | 14494 RFU | 14331 RFU | 18584 RFU | 19052 RFU | 18990 RFU | 18683 RFU
4 | Cc1cc(=O)oc2cc(O[C@H]3O[C@H](CO)[C@@H](O)[C@H](O)[C@H]3O)cc(F)c12 [Example 2, 5′-Fluoro-4′-methylumbelliferyl α-D-glucopyranoside] | 933 RFU | 852 RFU | 805 RFU | 758 RFU | 831 RFU | 777 RFU | 733 RFU | 673 RFU | 748 RFU | 705 RFU | 658 RFU | 579 RFU | 675 RFU | 625 RFU | 584 RFU | 530 RFU
